According to article PMC12487869, “Toward Imaging of the GABA Transporter Type 1 In Vivo: Quantitative Evaluation of 4 Novel PET Radiotracers in Nonhuman Primates” (Journal of Nuclear Medicine, 2025):

Legend:
[1] = Plasma free fraction (fp), ultrafiltration method; assay type: in vitro ADME, rhesus monkeys (Macaca mulatta); conditions: measured in triplicate per scan, mean ± SD
Procedure: The plasma free fraction (fp) for each scan was measured in triplicate using the ultrafiltration method and calculated as the ratio of radioactivity in the filtrate to that in the plasma ([24]).

[2] = biological target: T1, GAT-1 (Macaca mulatta, UniProt H9ELS5); assay: PET brain imaging with kinetic modeling (1TCM), baseline and tiagabine blocking scans; assay type: in vivo, rhesus monkeys (Macaca mulatta); conditions: for Median VT across ROIs: 1TCM
T1 construct: from tissue; host or cells: brain of living rhesus monkeys (in vivo PET)
T1 sequence (H9ELS5 1-599): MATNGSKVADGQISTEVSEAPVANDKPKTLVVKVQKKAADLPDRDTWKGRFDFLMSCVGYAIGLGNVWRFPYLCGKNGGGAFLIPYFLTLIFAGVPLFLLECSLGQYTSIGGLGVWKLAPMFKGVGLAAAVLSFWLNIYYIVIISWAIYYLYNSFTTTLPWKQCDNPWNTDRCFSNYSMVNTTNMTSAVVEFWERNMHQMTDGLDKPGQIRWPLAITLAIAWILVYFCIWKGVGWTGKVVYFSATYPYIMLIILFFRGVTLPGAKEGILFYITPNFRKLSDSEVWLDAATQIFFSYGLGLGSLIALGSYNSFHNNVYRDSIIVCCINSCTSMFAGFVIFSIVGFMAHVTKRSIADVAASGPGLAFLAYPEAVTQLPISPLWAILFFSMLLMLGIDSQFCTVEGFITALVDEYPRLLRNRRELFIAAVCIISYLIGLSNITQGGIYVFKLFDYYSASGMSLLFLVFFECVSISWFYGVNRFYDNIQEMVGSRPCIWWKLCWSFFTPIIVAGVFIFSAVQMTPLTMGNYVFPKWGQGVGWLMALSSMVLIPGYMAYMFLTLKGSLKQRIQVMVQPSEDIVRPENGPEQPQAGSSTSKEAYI
Procedure: Twenty scans were acquired from 4 rhesus monkeys (Macaca mulatta). Each monkey underwent baseline and blocking scans with ^18F-GATT-31, ^18F-GATT-34, ^18F-GATT-39, or ^18F-GATT-44 (Fig. 1) on a Focus-220 small-animal PET scanner (Siemens Healthineers).
(§1) Before each scan, each monkey was sedated with alfaxalone (2 mg/kg), midazolam (0.3 mg/kg), and dexmedetomidine (0.01 mg/kg), and anesthesia was maintained with 1.5%–2.5% isoflurane. Heart rate, blood pressure, respiration rate, and oxygen saturation were monitored continuously. An intravenous line was placed in the saphenous or cephalic vein for delivery of the radiotracer, as well as tiagabine during blocking studies (0.5 mg/kg administered 19 ± 4 min before radiotracer injections). A catheter was placed in the radial or tibial artery for blood sampling.
Before injection, a transmission scan was acquired. Starting with injection of the radiotracer, PET emission data were acquired in list-mode format and binned into 45 frames (6 × 30 s, 3 × 1 min, 2 × 2 min, and 34 × 5 min).
For region-of-interest (ROI) definition, each PET image was registered to an in-house rhesus monkey anatomical MRI template using the concatenation of a rigid-body transformation between the summed PET image (0–10 min) and corresponding monkey’s MRI (using the FMRIB Linear Image Registration Tool) and a nonlinear transformation matrix estimated between the monkey’s MRI and the MRI template (BioImage Suite software version 3.01). Regional time–activity curves were extracted for the following 11 ROIs: brain stem, caudate, cerebellum, cingulate cortex, frontal cortex, hippocampus, insula, occipital cortex, putamen, temporal cortex, and thalamus.
For each baseline and blocking scan, kinetic analysis was performed using a 1-tissue compartment model (1TCM), a reversible 2-tissue compartment model (2TCM; k4 > 0), and an irreversible 2-tissue compartment model (2TiCM; k4 = 0), including a blood volume fraction (Vb) term and a time-delay term. Vb was estimated for each time–activity curve using the whole-blood curve fitted with a sum of exponentials. The time delay (Δt) between the input function and the brain was estimated by fitting the first 10 min of the whole-brain time–activity curve to a 1TCM with 3 parameters: K1, Vb, and Δt (k2 was set to 0 because of the negligible radiotracer washout during the first 10 min). This estimated time delay value was then used in the time–activity curve fits. The primary parameters of interest were the influx constant (K1, expressed in microliters per minute per cubic centimeter, since values were low), the volume of distribution (VT, expressed in milliliters per cubic centimeter), and the net influx constant (Ki, expressed in milliliters per minute per cubic centimeter) for 2TiCM.

[3] = biological target: T1, GAT-1; assay: Time stability of VT with shortened scan duration; assay type: in vivo, rhesus monkeys (Macaca mulatta); conditions: for Mean percent difference in VT on shortening scan from 180 to 120 min: baseline, 3 monkeys; for Mean percent difference in VT with respect to the 180-min value: blocking condition
Procedure: Finally, to assess the possibility of reducing scan duration, time stability was assessed for the most promising radiotracer by sequentially shortening the time–activity curves from 180 to 60 min and reestimating the kinetic parameters. Scan-time reduction was deemed possible if the VT values from these shortened time–activity curves were within 10% of those estimated with the full time–activity curves.

[4] = biological target: T1, GAT-1; assay: Occupancy plots from baseline and tiagabine blocking PET scans (occupancy, VND, BPND); assay type: in vivo, rhesus monkeys (Macaca mulatta); design: key to BPND: BPND = VT/VND − 1 (dimensionless); conditions: for VND: occupancy plot; for Occupancy: tiagabine 0.5 mg/kg occupancy measured with this radiotracer
Procedure: as §1
(§2) Occupancy plots ([26]) were used to estimate tiagabine occupancy and the nondisplaceable volume of distribution (VND). This VND value was used to compute the nondisplaceable binding potential (BPND = VT/VND − 1). To compare the performance between 2 radiotracers, a Guo plot ([27]) was created, using baseline VT values, to assess the relative affinity and BPND values of each radiotracer.

[5] = biological target: T1, GAT-1; assay: Guo plot comparing baseline VT of two radiotracers (relative affinity and BPND); assay type: in vivo, rhesus monkeys (Macaca mulatta)
From the text: as §2

Cc1ccccc1C(=CCCN1CCCC(C(=O)O)C1)c1ccccc1[18F] (centres unmarked) [^18F-GATT-44]
Free fraction [1]: 13.5 ± 1.4% | Median VT across ROIs ([2]; after blocking with tiagabine 0.5 mg/kg): 1.7 mL/cm^3 | Median VT across ROIs ([2]; baseline): 3.5 mL/cm^3 | VT ([2]; Average of ROIs, baseline, 3 monkeys, mean ± SD): 3.40 ± 0.52 mL/cm^3 | VT ([2]; Average of ROIs, blocking (tiagabine 0.5 mg/kg), 3 monkeys, mean ± SD): 1.66 ± 0.11 mL/cm^3 | VT ([2]; Brain stem, baseline, averaged across 3 monkeys, mean ± SD): 2.61 ± 0.42 mL/cm^3 | VT ([2]; Brain stem, blocking (tiagabine 0.5 mg/kg), 3 monkeys, mean ± SD): 1.45 ± 0.20 mL/cm^3 | VT ([2]; Caudate nucleus, baseline, 3 monkeys, mean ± SD): 2.25 ± 0.13 mL/cm^3 | VT ([2]; Caudate nucleus, blocking (tiagabine 0.5 mg/kg), 3 monkeys, mean ± SD): 1.27 ± 0.11 mL/cm^3 | VT ([2]; Cerebellum, baseline, 3 monkeys, mean ± SD): 3.36 ± 0.39 mL/cm^3 | VT ([2]; Cerebellum, blocking (tiagabine 0.5 mg/kg), 3 monkeys, mean ± SD): 1.60 ± 0.13 mL/cm^3 | VT ([2]; Cingulate cortex, baseline, 3 monkeys, mean ± SD): 4.30 ± 0.39 mL/cm^3 | VT ([2]; Cingulate cortex, blocking (tiagabine 0.5 mg/kg), 3 monkeys, mean ± SD): 2.16 ± 0.18 mL/cm^3 | VT ([2]; Frontal cortex, baseline, 3 monkeys, mean ± SD): 3.73 ± 0.46 mL/cm^3 | VT ([2]; Frontal cortex, blocking (tiagabine 0.5 mg/kg), 3 monkeys, mean ± SD): 1.79 ± 0.04 mL/cm^3 | VT ([2]; Hippocampus, baseline, 3 monkeys, mean ± SD): 2.98 ± 1.10 mL/cm^3 | VT ([2]; Hippocampus, blocking (tiagabine 0.5 mg/kg), 3 monkeys, mean ± SD): 1.44 ± 0.07 mL/cm^3 | VT ([2]; Insula, baseline, 3 monkeys, mean ± SD): 4.46 ± 0.67 mL/cm^3 | VT ([2]; Insula, blocking (tiagabine 0.5 mg/kg), 3 monkeys, mean ± SD): 1.97 ± 0.07 mL/cm^3 | VT ([2]; Occipital cortex, baseline, 3 monkeys, mean ± SD): 4.55 ± 0.74 mL/cm^3 | VT ([2]; Occipital cortex, blocking (tiagabine 0.5 mg/kg), 3 monkeys, mean ± SD): 2.04 ± 0.11 mL/cm^3 | VT ([2]; Putamen, baseline, 3 monkeys, mean ± SD): 2.71 ± 0.05 mL/cm^3 | VT ([2]; Putamen, blocking (tiagabine 0.5 mg/kg), 3 monkeys, mean ± SD): 1.44 ± 0.12 mL/cm^3 | VT ([2]; Temporal cortex, baseline, 3 monkeys, mean ± SD): 4.48 ± 1.24 mL/cm^3 | VT ([2]; Temporal cortex, blocking (tiagabine 0.5 mg/kg), 3 monkeys, mean ± SD): 1.93 ± 0.05 mL/cm^3 | VT ([2]; Thalamus, baseline, 3 monkeys, mean ± SD): 1.96 ± 0.10 mL/cm^3 | VT ([2]; Thalamus, blocking (tiagabine 0.5 mg/kg), 3 monkeys, mean ± SD): 1.19 ± 0.17 mL/cm^3 | Radiotracer clearance time (half-life = ln(2)/k2) ([2]; brain, baseline): 175 ± 42 min | Blood volume fraction (Vb) ([2]; mean ± SD, n = 66 (11 ROIs × 6 scans)): 0.036 ± 0.013 mL/cm^3 | Overall spatial correlation (r) of regional distribution with ^11C-flumazenil ([2]; nonhuman primates, P < 0.01, previously acquired ^11C-flumazenil data): 0.87 | Mean percent difference in VT on shortening scan from 180 to 120 min ([3]; hippocampus): 1% | Mean percent difference in VT on shortening scan from 180 to 120 min ([3]; thalamus): −12% | Mean percent difference in VT with respect to the 180-min value ([3]; frontal cortex): −5% | Mean percent difference in VT with respect to the 180-min value ([3]; thalamus): 3% | BPND ([4]; Average of ROIs, baseline): 2.88 ± 0.59 | BPND ([4]; Average of ROIs, blocking): 0.90 ± 0.13 | BPND ([4]; Brain stem, baseline, BPND = VT/VND – 1 with averaged VND): 1.98 ± 0.48 | BPND ([4]; Brain stem, blocking, BPND = VT/VND – 1 with averaged VND): 0.66 ± 0.23 | BPND ([4]; Caudate nucleus, baseline): 1.57 ± 0.15 | BPND ([4]; Caudate nucleus, blocking): 0.45 ± 0.12 | BPND ([4]; Cerebellum, baseline): 2.84 ± 0.44 | BPND ([4]; Cerebellum, blocking): 0.83 ± 0.15 | BPND ([4]; Cingulate cortex, baseline): 3.91 ± 0.44 | BPND ([4]; Cingulate cortex, blocking): 1.46 ± 0.20 | BPND ([4]; Frontal cortex, baseline): 3.26 ± 0.52 | BPND ([4]; Frontal cortex, blocking): 1.04 ± 0.04 | BPND ([4]; Hippocampus, baseline): 2.40 ± 1.25 | BPND ([4]; Hippocampus, blocking): 0.64 ± 0.08 | BPND ([4]; Insula, baseline): 4.08 ± 0.76 | BPND ([4]; Insula, blocking): 1.25 ± 0.08 | BPND ([4]; Occipital cortex, baseline): 4.19 ± 0.84 | BPND ([4]; Occipital cortex, blocking): 1.32 ± 0.13 | BPND ([4]; Putamen, baseline): 2.09 ± 0.06 | BPND ([4]; Putamen, blocking): 0.64 ± 0.14 | BPND ([4]; Temporal cortex, baseline): 4.10 ± 1.41 | BPND ([4]; Temporal cortex, blocking): 1.20 ± 0.05 | BPND ([4]; Thalamus, baseline): 1.24 ± 0.11 | BPND ([4]; Thalamus, blocking): 0.36 ± 0.20 | VND ([4]; monkey 1): 1.03 mL/cm^3 | VND ([4]; monkey 2): 0.96 mL/cm^3 | VND ([4]; monkey 3): 0.64 mL/cm^3 | VND, mean ± SD across monkeys ([4]; occupancy plots, 3 monkeys, average rSE of 16%): 0.88 ± 0.21 mL/cm^3 | Occupancy ([4]; monkey 1): 65% | Occupancy ([4]; monkey 2): 70% | Occupancy ([4]; monkey 3): 71% | Occupancy (overall) ([4]; tiagabine blocking): 69% | KD ratio (KD^GATT-31/KD^GATT-44) ([5]; Guo plot slope using measured fp values): 1.06 | BPND predicted higher than for ^18F-GATT-31 ([5]; Guo plot y-intercept, baseline VT): approximately 17%
